In patent US9637453B2, “3-spirocyclic-6-hydroxamic acid tetralins as HDAC inhibitors” (Forma Therapeutics, Inc., priority 2015, dated 2017):

Assays:
[1] = molecular target: T1, Full length human recombinant HDAC11 (Homo sapiens, UniProt Q96DB2); experiment: In vitro histone deacetylase assay, enzymatic HDAC11 (electrophoretic mobility shift assay); type: biochemical; details: 10 nM HDAC11; 2 μM peptide substrate FAM-RHKK(tri-fluor-Ac)—NH2; 25° C.; 12 concentrations; read-out: HDAC11 Activity Range (IC50)
T1 construct: Full length human recombinant HDAC6 and HDAC11 proteins were expressed in baculoviral system
T1 sequence (Q96DB2 1-347): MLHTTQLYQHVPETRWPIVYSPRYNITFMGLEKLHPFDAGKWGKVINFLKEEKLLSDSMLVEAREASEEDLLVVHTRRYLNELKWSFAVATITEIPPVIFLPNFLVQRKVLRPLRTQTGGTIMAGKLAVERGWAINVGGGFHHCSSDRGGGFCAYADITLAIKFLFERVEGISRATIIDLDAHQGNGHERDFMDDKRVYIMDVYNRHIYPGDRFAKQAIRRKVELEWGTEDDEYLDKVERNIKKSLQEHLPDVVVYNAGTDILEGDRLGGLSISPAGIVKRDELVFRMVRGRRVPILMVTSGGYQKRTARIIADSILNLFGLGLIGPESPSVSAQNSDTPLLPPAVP
Outline: (§1)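 Baculovirus-expressed full-length enzymes (HDAC6 1 nM, FAM-RHKK(Ac)-NH2; HDAC11 10 nM, FAM-RHKK(tri-fluor-Ac)-NH2), 2 μM substrate, HEPES pH 7.5, 25°C, 12-point 3× dilutions. Product/substrate separated by microfluidic mobility shift after SDS quench; IC50 from 4-parameter fit, reported as +/++/+++ bins.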

[2] = molecular target: T2, Full length human recombinant HDAC6 (Homo sapiens, UniProt Q9UBN7); experiment: In vitro histone deacetylase assay, enzymatic HDAC6 (electrophoretic mobility shift assay); type: biochemical; details: 1 nM HDAC6; 2 μM peptide substrate FAM-RHKK(Ac)—NH2; 25° C.; 12 concentrations; read-out: HDAC6 Activity Range (IC50)
T2 construct: Full length human recombinant HDAC6 and HDAC11 proteins were expressed in baculoviral system
T2 sequence (Q9UBN7 1-1215): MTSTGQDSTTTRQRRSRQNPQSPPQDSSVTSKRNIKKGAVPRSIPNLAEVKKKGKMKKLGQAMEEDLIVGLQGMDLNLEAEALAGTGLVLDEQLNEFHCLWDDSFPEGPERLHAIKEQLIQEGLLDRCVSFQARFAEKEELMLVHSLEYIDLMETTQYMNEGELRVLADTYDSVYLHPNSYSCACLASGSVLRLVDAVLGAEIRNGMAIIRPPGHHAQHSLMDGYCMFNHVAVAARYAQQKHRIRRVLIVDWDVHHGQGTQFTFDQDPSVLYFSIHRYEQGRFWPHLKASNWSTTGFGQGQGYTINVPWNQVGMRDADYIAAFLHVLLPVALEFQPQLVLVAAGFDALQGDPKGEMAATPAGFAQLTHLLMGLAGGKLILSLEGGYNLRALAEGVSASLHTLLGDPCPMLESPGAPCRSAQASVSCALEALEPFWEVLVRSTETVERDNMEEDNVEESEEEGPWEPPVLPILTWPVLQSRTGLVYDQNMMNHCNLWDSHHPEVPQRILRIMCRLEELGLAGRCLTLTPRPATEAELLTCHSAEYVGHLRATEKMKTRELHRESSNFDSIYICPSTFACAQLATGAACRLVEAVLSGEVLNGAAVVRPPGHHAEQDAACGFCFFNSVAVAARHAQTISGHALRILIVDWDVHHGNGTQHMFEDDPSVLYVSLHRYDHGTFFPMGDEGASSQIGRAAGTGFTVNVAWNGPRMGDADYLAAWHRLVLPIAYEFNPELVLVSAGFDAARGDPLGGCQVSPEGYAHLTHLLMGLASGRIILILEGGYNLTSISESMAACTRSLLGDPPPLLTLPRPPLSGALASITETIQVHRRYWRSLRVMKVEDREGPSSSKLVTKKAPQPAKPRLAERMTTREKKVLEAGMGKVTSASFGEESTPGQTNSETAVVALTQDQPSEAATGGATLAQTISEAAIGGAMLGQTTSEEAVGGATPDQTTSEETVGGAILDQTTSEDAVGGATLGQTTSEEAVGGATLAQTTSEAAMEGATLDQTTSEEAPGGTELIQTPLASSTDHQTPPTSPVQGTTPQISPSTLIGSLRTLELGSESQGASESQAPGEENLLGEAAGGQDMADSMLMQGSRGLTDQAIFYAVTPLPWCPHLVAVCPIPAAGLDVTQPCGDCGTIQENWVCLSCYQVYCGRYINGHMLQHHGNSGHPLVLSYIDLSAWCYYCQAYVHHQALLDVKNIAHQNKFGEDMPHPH
Outline: as §1

For `O=C(NO)c1ccc2c(c1)OC1(CC2)CCN(S(=O)(=O)C2CCCCC2)CC1` [II-3, 1′-(cyclohexylsulfonyl)-N-hydroxyspiro[chromane-2,4′-piperidine]-7-carboxamide], the IC50 [1] was no more than 100 nM and the IC50 [2] was no more than 100 nM.
In the case of `CC(C)N1CCC2(CCc3ccc(C(=O)NO)cc3C2)C1` (stereo not shown) [Compound I-11, N-hydroxy-1′-isopropyl-3,4-dihydro-1H-spiro[naphthalene-2,3′-pyrrolidine]-7-carboxamide], the IC50 [1] is reported as greater than 500 nM and the IC50 [2] is reported as 100 to 500 nM.
`O=C(NO)c1ccc2c(c1)C[C@@]1(CC2)CCN(Cc2ccc3ccccc3c2)C1=O` [Compound I-77, (S)—N-hydroxy-1′-(naphthalen-2-ylmethyl)-2′-oxo-3,4-dihydro-1H-spiro[naphthalene-2,3′-pyrrolidine]-7-carboxamide] gave an IC50 [1] of 100 to 500 nM and an IC50 [2] of no more than 100 nM.
With `O=C(NO)c1ccc2c(c1)CC1(CC2)CCN(c2ccccc2)C1=O` (stereo not shown) [Compound I-26, N-hydroxy-2′-oxo-1′-phenyl-3,4-dihydro-1H-spiro[naphthalene-2,3′-pyrrolidine]-7-carboxamide] the IC50 [1] was 100 to 500 nM and the IC50 [2] was no more than 100 nM.
`O=C(NO)c1ccc2c(c1)C[C@@]1(CCNC1=O)CC2` [Compound I-48, (R)—N-hydroxy-2′-oxo-3,4-dihydro-1H-spiro[naphthalene-2,3′-pyrrolidine]-7-carboxamide] was tested, and the IC50 [1] was greater than 500 nM and the IC50 [2] was no more than 100 nM.
For `CN1CC[C@]2(CCc3ccc(C(=O)NO)cc3C2)C1=O` [Compound I-120, (R)—N-hydroxy-1′-methyl-2′-oxo-3,4-dihydro-1H-spiro[naphthalene-2,3′-pyrrolidine]-7-carboxamide], the IC50 [1] was greater than 500 nM and the IC50 [2] was no more than 100 nM.
`COCCn1c(CN2CC[C@@]3(CCc4ccc(C(=O)NO)cc4C3)C2=O)nc2ccccc21` [Compound I-45, (S)—N-hydroxy-1′-((1-(2-methoxyethyl)-1H-benzo[d]imidazol-2-yl)methyl)-2′-oxo-3,4-dihydro-1H-spiro[naphthalene-2,3′-pyrrolidine]-7-carboxamide] was tested, and the IC50 [1] was greater than 500 nM and the IC50 [2] was no more than 100 nM.
`O=C(NO)c1ccc2c(c1)C[C@]1(CC2)CCN(c2cccc(OCCN3CCOCC3)c2)C1=O` [Compound I-117, (R)—N-hydroxy-1′-(3-(2-morpholinoethoxy)phenyl)-2′-oxo-3,4-dihydro-1H-spiro[naphthalene-2,3′-pyrrolidine]-7-carboxamide] was tested, and the IC50 [1] was greater than 500 nM and the IC50 [2] was no more than 100 nM.
For `COc1ccc(S(=O)(=O)N2CCC3(CCc4ccc(C(=O)NO)cc4C3)C2)cc1` (stereo not shown) [Compound I-2, N-hydroxy-1′-((4-methoxyphenyl)sulfonyl)-3,4-dihydro-1H-spiro[naphthalene-2,3′-pyrrolidine]-7-carboxamide], the IC50 [1] was greater than 500 nM and the IC50 [2] was no more than 100 nM.
`O=C(NO)c1ccc2c(c1)C[C@@]1(CC2)CCN(Cc2cccc(F)c2)C1=O` [Compound I-72, (S)-1′-(3-fluorobenzyl)-N-hydroxy-2′-oxo-3,4-dihydro-1H-spiro[naphthalene-2,3′-pyrrolidine]-7-carboxamide] gave an IC50 [1] greater than 500 nM and an IC50 [2] of no more than 100 nM.
For `O=C(NO)c1ccc2c(c1)C[C@]1(CC2)CCN(Cc2ccc(C(F)(F)F)c(F)c2)C1=O` [Compound I-125, (R)-1′-(3-fluoro-4-(trifluoromethyl)benzyl)-N-hydroxy-2′-oxo-3,4-dihydro-1H-spiro[naphthalene-2,3′-pyrrolidine]-7-carboxamide], the IC50 [1] was 100 to 500 nM and the IC50 [2] was no more than 100 nM.
Compound `O=C(NO)c1ccc2c(c1)C[C@]1(CC2)CCN(CC(=O)N2CCOCC2)C1=O` [Compound I-92, (R)—N-hydroxy-1′-(2-morpholino-2-oxoethyl)-2′-oxo-3,4-dihydro-1H-spiro[naphthalene-2,3′-pyrrolidine]-7-carboxamide] has an IC50 [1] greater than 500 nM and an IC50 [2] of no more than 100 nM.
In the case of `O=C(NO)c1ccc2c(c1)C[C@@]1(CC2)CCN(Cc2ccccc2)C1=O` [Compound I-35, (S)-1′-benzyl-N-hydroxy-2′-oxo-3,4-dihydro-1H-spiro[naphthalene-2,3′-pyrrolidine]-7-carboxamide], the IC50 [1] is reported as greater than 500 nM and the IC50 [2] is reported as no more than 100 nM.
`O=C(NO)c1ccc2c(c1)C[C@]1(CC2)CCN(Cc2ccc(Cl)cn2)C1=O` [Compound I-40, (R)-1′-((5-chloropyridin-2-yl)methyl)-N-hydroxy-2′-oxo-3,4-dihydro-1H-spiro[naphthalene-2,3′-pyrrolidine]-7-carboxamide] showed an IC50 [1] of no more than 100 nM and an IC50 [2] of no more than 100 nM.
`COc1cccc(CN2CC[C@@]3(CCc4ccc(C(=O)NO)cc4C3)C2=O)c1` [Compound I-69, (S)—N-hydroxy-1′-(3-methoxybenzyl)-2′-oxo-3,4-dihydro-1H-spiro[naphthalene-2,3′-pyrrolidine]-7-carboxamide] showed an IC50 [1] greater than 500 nM and an IC50 [2] of no more than 100 nM.
`CN(C)CCc1ccc(N2CC[C@@]3(CCc4ccc(C(=O)NO)cc4C3)C2=O)cc1` [Compound I-119, (S)-1′-(4-(2-(dimethylamino)ethyl)phenyl)-N-hydroxy-2′-oxo-3,4-dihydro-1H-spiro[naphthalene-2,3′-pyrrolidine]-7-carboxamide] gave an IC50 [1] greater than 500 nM and an IC50 [2] of no more than 100 nM.
`O=C(NO)c1ccc2c(c1)C[C@@]1(CC2)CCN(CC(=O)N2CCOCC2)C1=O` [Compound I-64, (S)—N-hydroxy-1′-(2-morpholino-2-oxoethyl)-2′-oxo-3,4-dihydro-1H-spiro[naphthalene-2,3′-pyrrolidine]-7-carboxamide] gave an IC50 [1] greater than 500 nM and an IC50 [2] of no more than 100 nM.
`O=C(NO)c1ccc2c(c1)CC1(CC2)CCN(Cc2ccc(Cl)c(C(F)(F)F)c2)C1=O` (stereo not shown) [Compound I-27, 1′-(4-chloro-3-(trifluoromethyl)benzyl)-N-hydroxy-2′-oxo-3,4-dihydro-1H-spiro[naphthalene-2,3′-pyrrolidine]-7-carboxamide] gave an IC50 [1] of no more than 100 nM and an IC50 [2] of no more than 100 nM.
Work on `COc1ccccc1N1CC[C@@]2(CCc3ccc(C(=O)NO)cc3C2)C1=O` [Compound I-114, (S)—N-hydroxy-1′-(2-methoxyphenyl)-2′-oxo-3,4-dihydro-1H-spiro[naphthalene-2,3′-pyrrolidine]-7-carboxamide] yielded an IC50 [1] greater than 500 nM and an IC50 [2] of no more than 100 nM.
`O=C(NO)c1ccc2c(c1)C[C@]1(CC2)CCN(CCCO)C1=O` [Compound I-80, (R)—N-hydroxy-1′-(3-hydroxypropyl)-2′-oxo-3,4-dihydro-1H-spiro[naphthalene-2,3′-pyrrolidine]-7-carboxamide] was tested, and the IC50 [1] was greater than 500 nM and the IC50 [2] was no more than 100 nM.
`O=C(NO)c1ccc2c(c1)C[C@@]1(CC2)CC(=O)N(Cc2ccc(F)cc2)C1` [Compound I-129, (S)-1′-(4-fluorobenzyl)-N-hydroxy-5′-oxo-3,4-dihydro-1H-spiro[naphthalene-2,3′-pyrrolidine]-7-carboxamide] gave an IC50 [1] greater than 500 nM and an IC50 [2] of no more than 100 nM.
`O=C(NO)c1ccc2c(c1)C[C@@]1(CC2)CCN(Cc2ccccc2OC(F)(F)F)C1=O` [Compound I-62, (S)—N-hydroxy-2′-oxo-1′-(2-(trifluoromethoxy)benzyl)-3,4-dihydro-1H-spiro[naphthalene-2,3′-pyrrolidine]-7-carboxamide] was tested, and the IC50 [1] was greater than 500 nM and the IC50 [2] was 100 to 500 nM.
In the case of `COc1ccc(CN2CC[C@]3(CCc4ccc(C(=O)NO)cc4C3)C2=O)cc1` [Compound I-102, (R)—N-hydroxy-1′-(4-methoxybenzyl)-2′-oxo-3,4-dihydro-1H-spiro[naphthalene-2,3′-pyrrolidine]-7-carboxamide], the IC50 [1] is reported as no more than 100 nM and the IC50 [2] is reported as no more than 100 nM.
